Measured values as given in patent US20260272869A1, “ORAL COMPOSITION COMPRISING L-THEANINE” (NICOVENTURES TRADING LIMITED, priority 2023, published 2026).

tested on: blood-brain barrier; experiment: Enhancement of blood-brain barrier permeation of P-glycoprotein substrate compounds by piperine; conditions: P-glycoprotein substrate compound combined with piperine

SMILES	Permeation across the blood-brain barrier / bioavailability when combined with piperine
CC(/C=C/C=C(\C)C(=O)O)=C\C=C\C=C(C)\C=C\C=C(/C)C(=O)O [crocetin]	enhanced
CC(/C=C/C=C(\C)C(=O)O[C@@H]1O[C@H](CO[C@@H]2O[C@H](CO)[C@@H](O)[C@H](O)[C@H]2O)[C@@H](O)[C@H](O)[C@H]1O)=C\C=C\C=C(C)\C=C\C=C(/C)C(=O)O[C@@H]1O[C@H](CO[C@@H]2O[C@H](CO)[C@@H](O)[C@H](O)[C@H]2O)[C@@H](O)[C@H](O)[C@H]1O [crocin]	enhanced
CC1=C(C)C(=O)O[C@@H]([C@](C)(O)[C@H]2CC[C@H]3[C@@H]4[C@@H]5O[C@@H]5[C@@]5(O)CC=CC(=O)[C@]5(C)[C@H]4CC[C@]23C)C1 [withanolide A]	enhanced
CC1=C(C)C(=O)O[C@@H]([C@@H](C)[C@@]2(O)CC[C@H]3[C@@H]4[C@@H]5O[C@@H]5[C@@]5(O)CC=CC(=O)[C@]5(C)[C@H]4CC[C@@]32C)C1 [withanone]	enhanced
